{
  "source": "patent US11684623B2",
  "about": "“Soluble melatonin tripartate adduct for the prevention and treatment of rare and severe eye sight-threatening conditions and neuro-ophthalmic disorders” (WORPHMED SRL, priority 2020, dated 2023)",
  "assay": "Solubility in water according to USP and EP",
  "format": "physicochemical",
  "description": "wherein melatonin is complexed with adenosine and glycine. Adenosine is a purine nucleoside consisting of adenine attached to a ribofuranose moiety via a β-N9-glycosidic bond and the low-chain amino acid glycine is a C2 amino acid having a single hydrogen atom as its side chain.",
  "data": [
    {"smiles": "COc1ccc2[nH]cc(CCNC(C)=O)c2c1", "note": "[melatonin, N-acetyl-5-methoxytryptamine]", "values": [
      {"measurement": "Solubility in water, Results", "value": 0.1, "unit": "mg/1.0 ml"}
    ]}
  ]
}
